The text below walks through data of patent EP1897937A1, “Method of culturing NPCs” (NeuroProgen GmbH Leipzig, priority 2006, dated 2008).

Like-named read-outs stand apart in the source and are kept apart here.

The subject of one test is hmNPCs. The test can be described thus: Short-term proliferation: Ki67/nestin immunostaining. It counts as cell-based, human. The note with it: Homo sapiens, 120 h, 1 µM, 5 subsequent days. As to the method: To determine long-term proliferation, […] were plated and expanded for 2 passages with or without addition of various agents (see below) to the custom expansion media containing the growth factors EGF and FGF2. Different fetal midbrain tissues were included in this study. At the end of the proliferation period, differentiation of […] was induced via replacement of expansion media with mitogen-free media containing 1% FCS, 5 μM forskoline (Sigma-Aldrich Chemie GmbH Munich, Germany), and 100 pg/ml IL-1β (Sigma). The differentiation and expansion media were supplemented with different drugs as appropriate. Prior to immunocytochemistry or protein extraction, […] were allowed to differentiate for 1 week. To determine short-term proliferation via Ki67 immunostaining, the cells were seeded into 24-well plates (70,000 cells/well) and left overnight to rest. P2 receptor agonists (ATP, UTP, ATP + UTP, ADP, ADPβS) were supplied daily for 5 consecutive days. Ki67/nestin double-positive cells were counted in 8 randomly selected fields of nucleotide-treated or untreated samples. For the assessment of MAPK phosphorylation the cells were kept free of mitogens for 2 d prior to addition of the MEK-inhibitor in expansion media. In addition, the MEK-inhibitor was added during the differentiation period 15 min before UTP administration. […] Cover-slips were mounted onto glass slides and examined under a fluorescence microscope (Zeiss Axiovert 200). Acquisition of the cells was performed using the Image-analysis software AxioVision 4 (Carl Zeiss AG, Jena, Germany). The following primary antibodies were used for immunofluorescence: rabbit polyclonal anti-β-tubulin III (anti-Tuj1) antibody, rabbit polyclonal anti-tyrosine hydroxylase antibody , mouse monoclonal anti-nestin antibody (Pharmingen, San Diego, CA, USA), rabbit polyclonal anti-Ki67 antigen antibody (Novocastra Laboratories Ltd, Newcastle upon Tyne, UK). Estimation of the TH-positive cell numbers was performed by counting of cells among approximately 1000 differentiated cells in total within 6 randomly selected fields.

In a further test the test system is ERK1/2. The test can be described thus: ERK1/2 (MAPK) phosphorylation by Western blot. The test is classed as cell-based, human. As to the method: To determine long-term proliferation, hmNPCs were plated and expanded for 2 passages with or without addition of various agents (see below) to the custom expansion media containing the growth factors EGF and FGF2. Different fetal midbrain tissues were included in this study. At the end of the proliferation period, differentiation of hmNPCs was induced via replacement of expansion media with mitogen-free media containing 1% FCS, 5 µM forskoline (Sigma-Aldrich Chemie GmbH Munich, Germany), and 100 pg/ml IL-1β (Sigma). The differentiation and expansion media were supplemented with different drugs as appropriate. Prior to immunocytochemistry or protein extraction, hmNPCs were allowed to differentiate for 1 week. To determine short-term proliferation via Ki67 immunostaining, the cells were seeded into 24-well plates (70,000 cells/well) and left overnight to rest. P2 receptor agonists (ATP, UTP, ATP + UTP, ADP, ADPβS) were supplied daily for 5 consecutive days. Ki67/nestin double-positive cells were counted in 8 randomly selected fields of nucleotide-treated or untreated samples. For the assessment of MAPK phosphorylation the cells were kept free of mitogens for 2 d prior to addition of the MEK-inhibitor in expansion media. In addition, the MEK-inhibitor was added during the differentiation period 15 min before UTP administration.
UTP, UDP, ATP, ADP, ADPβS and suramin were purchased from Sigma (Sigma-Aldrich Chemie GmbH Munich, Germany). UTP and UDP were applied at different concentrations (1 µM, 10 µM, 100 µM), ATP at 100 µM, ADP at 100 µM, and ADPβS at100 µM. During expansion of the cells, the nucleotides were renewed once a week with every media change, unless otherwise stated. They were applied once at the beginning of the differentiation period. The P2 receptor antagonist suramin (10 µM) was added to expansion media 30 min prior to addition of UTP (100 µM). The stock solution of the MEK1/2 inhibitor U0126 (Promega Corporation, Mannheim, Germany) was prepared in dimethyl sulfoxide (DMSO) at a concentration of 10 mM. The stock solution was then diluted in 0.1 M PBS to obtain a concentration of 1 mM. MEK inhibitor (final concentration 10 µM) was added to mitogen-free expansion media, 15 min before UTP treatment (1 µM) of hmNPCs.
In order to prepare protein extracts, hmNPCs were collected, washed with ice-cold PBS and lysed in buffer [10 mM HEPES-KOH (pH 7.9), 10 mM KCI, 1.5 mM MgCl2, 0.1% NP-40], supplemented with protease inhibitor cocktail (Roche). After a brief centrifugation at 4°C/10 000×g, protein concentrations and protein yield from extracts were determined using the Bradford method (Bio-Rad, Hercules, CA, USA). To preserve the phosphorylation state of proteins, extracts for the MAPK experiment were obtained using the PhosphoSafe™ extraction reagent containing phophatase inhibitors (Novagen). […] Membranes were blocked with 5% (wt/vol) nonfat dry milk in PBS-T (PBS, 0.1% (vol/vol) Tween 20) for 2 h at room temperature and subsequently incubated with the desired primary antibody (diluted in PBS containing 5% non-fat milk and 0.1% Tween 20) overnight at 4 °C with gentle agitation. The membrane was incubated with horseradish peroxidase-coupled secondary antibody for 1 h at room temperature. […] The chemiluminescence was quantified using the AIDA, two-dimensional densitometry software (Raytest lsotopenmeb, Straubenhardt, Germany).
For orientation: A western blot detects proteins with antibodies after separation by electrophoresis.

Regarding `O=c1ccn([C@@H]2O[C@H](COP(=O)(O)OP(=O)(O)OP(=O)(O)O)[C@@H](O)[C@H]2O)c(=O)[nH]1` [UTP, uridine 5'-triphosphate], the activity at 1 µM came to 193 ± 3% with hmNPCs (read-out: NPCs double-immunoreactive for Ki67 and nestin); 188 ± 2% in the test with hmNPCs (read-out: cells immunoreactive for nestin alone). The “ERK1/2 (MAPK) phosphorylation” value in the test with ERK1/2 (1 µM, 30 min, expansion media, mitogen-free) is listed as “phosphorylated”. In the test with ERK1/2 (100 µM, one week of differentiation), the “expression of phosphorylated ERK1/2” value was “increased”.
